For assay [1], the target named is T1, hNaV1.4 (Homo sapiens, UniProt P35499). The assay is described as follows: cell-based. Conditions: for IC50: SEM.
Assay [2] deals with T2, hNaV1.7 (Homo sapiens, UniProt Q15858). The experiment in a line: cell-based. The note with it: SEM.
For assay [3], the target named is T1, hNaV1.4. The experiment in a line: cell-based. It counts as cell-based.
Assay [4] deals with T2, hNaV1.7. The experiment in a line: cell-based. It counts as cell-based.
In assay [5] the target is T2, hNaV1.7. The note with it: SEM; cited from earlier work.
For assay [6], the target named is T1, hNaV1.4. The note with it: cited from earlier work.
Another assay has as its system rNaV1.4. The note with it: read-out: IC50 (nM ± SEM), rat NaV1.4; cited from earlier work.

Where two headings read alike, the source gives them in different places.

We go through six compounds from publication PMC7667638 (Journal of Medicinal Chemistry, 2020).

T1 sequence (P35499 whole entry, looked up): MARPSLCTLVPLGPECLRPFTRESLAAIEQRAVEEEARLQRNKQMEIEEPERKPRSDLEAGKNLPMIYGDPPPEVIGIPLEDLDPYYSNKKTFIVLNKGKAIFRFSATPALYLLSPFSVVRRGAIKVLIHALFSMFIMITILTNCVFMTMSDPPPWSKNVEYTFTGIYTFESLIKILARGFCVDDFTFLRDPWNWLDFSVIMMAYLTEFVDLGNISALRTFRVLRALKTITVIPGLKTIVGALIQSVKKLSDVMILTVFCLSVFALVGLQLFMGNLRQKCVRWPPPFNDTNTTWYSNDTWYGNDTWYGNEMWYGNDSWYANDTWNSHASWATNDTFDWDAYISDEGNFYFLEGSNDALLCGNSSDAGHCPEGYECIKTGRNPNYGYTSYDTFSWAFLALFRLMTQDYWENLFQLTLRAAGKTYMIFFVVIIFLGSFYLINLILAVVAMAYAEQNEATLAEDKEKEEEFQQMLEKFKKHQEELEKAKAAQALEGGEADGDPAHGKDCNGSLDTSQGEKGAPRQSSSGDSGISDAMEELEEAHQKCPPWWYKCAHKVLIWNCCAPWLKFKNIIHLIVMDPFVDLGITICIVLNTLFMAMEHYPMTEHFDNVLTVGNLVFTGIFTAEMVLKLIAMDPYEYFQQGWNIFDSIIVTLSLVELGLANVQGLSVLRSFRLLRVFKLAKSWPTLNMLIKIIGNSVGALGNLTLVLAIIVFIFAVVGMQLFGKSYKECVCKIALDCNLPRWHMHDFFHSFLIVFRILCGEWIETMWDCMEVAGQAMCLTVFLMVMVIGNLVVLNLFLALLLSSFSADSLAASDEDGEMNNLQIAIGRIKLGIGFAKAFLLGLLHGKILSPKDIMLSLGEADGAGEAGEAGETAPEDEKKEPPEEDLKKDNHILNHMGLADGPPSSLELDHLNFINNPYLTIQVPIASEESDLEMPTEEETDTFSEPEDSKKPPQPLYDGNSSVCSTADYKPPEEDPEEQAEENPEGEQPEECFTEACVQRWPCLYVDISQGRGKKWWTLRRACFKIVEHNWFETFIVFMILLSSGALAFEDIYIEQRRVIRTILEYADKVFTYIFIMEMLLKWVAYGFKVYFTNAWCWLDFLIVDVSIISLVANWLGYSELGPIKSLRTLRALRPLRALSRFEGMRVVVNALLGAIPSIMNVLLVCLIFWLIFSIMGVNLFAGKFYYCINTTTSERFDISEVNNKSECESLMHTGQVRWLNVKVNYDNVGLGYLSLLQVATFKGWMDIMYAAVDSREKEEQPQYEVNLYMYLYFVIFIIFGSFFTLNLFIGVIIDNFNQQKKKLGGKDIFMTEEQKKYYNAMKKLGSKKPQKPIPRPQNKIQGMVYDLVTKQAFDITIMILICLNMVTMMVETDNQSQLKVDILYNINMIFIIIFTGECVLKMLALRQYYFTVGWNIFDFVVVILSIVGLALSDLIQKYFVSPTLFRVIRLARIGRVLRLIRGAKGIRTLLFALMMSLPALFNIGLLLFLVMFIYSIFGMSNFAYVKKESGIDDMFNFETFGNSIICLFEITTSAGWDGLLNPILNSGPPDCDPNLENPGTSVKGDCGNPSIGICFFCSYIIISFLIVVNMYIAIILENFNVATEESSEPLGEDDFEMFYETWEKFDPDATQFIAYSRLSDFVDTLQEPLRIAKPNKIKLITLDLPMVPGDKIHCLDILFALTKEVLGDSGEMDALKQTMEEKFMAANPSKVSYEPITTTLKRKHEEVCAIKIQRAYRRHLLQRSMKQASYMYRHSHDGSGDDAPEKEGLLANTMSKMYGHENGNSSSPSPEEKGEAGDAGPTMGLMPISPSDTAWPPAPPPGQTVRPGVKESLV
T2 sequence (Q15858 whole entry, looked up): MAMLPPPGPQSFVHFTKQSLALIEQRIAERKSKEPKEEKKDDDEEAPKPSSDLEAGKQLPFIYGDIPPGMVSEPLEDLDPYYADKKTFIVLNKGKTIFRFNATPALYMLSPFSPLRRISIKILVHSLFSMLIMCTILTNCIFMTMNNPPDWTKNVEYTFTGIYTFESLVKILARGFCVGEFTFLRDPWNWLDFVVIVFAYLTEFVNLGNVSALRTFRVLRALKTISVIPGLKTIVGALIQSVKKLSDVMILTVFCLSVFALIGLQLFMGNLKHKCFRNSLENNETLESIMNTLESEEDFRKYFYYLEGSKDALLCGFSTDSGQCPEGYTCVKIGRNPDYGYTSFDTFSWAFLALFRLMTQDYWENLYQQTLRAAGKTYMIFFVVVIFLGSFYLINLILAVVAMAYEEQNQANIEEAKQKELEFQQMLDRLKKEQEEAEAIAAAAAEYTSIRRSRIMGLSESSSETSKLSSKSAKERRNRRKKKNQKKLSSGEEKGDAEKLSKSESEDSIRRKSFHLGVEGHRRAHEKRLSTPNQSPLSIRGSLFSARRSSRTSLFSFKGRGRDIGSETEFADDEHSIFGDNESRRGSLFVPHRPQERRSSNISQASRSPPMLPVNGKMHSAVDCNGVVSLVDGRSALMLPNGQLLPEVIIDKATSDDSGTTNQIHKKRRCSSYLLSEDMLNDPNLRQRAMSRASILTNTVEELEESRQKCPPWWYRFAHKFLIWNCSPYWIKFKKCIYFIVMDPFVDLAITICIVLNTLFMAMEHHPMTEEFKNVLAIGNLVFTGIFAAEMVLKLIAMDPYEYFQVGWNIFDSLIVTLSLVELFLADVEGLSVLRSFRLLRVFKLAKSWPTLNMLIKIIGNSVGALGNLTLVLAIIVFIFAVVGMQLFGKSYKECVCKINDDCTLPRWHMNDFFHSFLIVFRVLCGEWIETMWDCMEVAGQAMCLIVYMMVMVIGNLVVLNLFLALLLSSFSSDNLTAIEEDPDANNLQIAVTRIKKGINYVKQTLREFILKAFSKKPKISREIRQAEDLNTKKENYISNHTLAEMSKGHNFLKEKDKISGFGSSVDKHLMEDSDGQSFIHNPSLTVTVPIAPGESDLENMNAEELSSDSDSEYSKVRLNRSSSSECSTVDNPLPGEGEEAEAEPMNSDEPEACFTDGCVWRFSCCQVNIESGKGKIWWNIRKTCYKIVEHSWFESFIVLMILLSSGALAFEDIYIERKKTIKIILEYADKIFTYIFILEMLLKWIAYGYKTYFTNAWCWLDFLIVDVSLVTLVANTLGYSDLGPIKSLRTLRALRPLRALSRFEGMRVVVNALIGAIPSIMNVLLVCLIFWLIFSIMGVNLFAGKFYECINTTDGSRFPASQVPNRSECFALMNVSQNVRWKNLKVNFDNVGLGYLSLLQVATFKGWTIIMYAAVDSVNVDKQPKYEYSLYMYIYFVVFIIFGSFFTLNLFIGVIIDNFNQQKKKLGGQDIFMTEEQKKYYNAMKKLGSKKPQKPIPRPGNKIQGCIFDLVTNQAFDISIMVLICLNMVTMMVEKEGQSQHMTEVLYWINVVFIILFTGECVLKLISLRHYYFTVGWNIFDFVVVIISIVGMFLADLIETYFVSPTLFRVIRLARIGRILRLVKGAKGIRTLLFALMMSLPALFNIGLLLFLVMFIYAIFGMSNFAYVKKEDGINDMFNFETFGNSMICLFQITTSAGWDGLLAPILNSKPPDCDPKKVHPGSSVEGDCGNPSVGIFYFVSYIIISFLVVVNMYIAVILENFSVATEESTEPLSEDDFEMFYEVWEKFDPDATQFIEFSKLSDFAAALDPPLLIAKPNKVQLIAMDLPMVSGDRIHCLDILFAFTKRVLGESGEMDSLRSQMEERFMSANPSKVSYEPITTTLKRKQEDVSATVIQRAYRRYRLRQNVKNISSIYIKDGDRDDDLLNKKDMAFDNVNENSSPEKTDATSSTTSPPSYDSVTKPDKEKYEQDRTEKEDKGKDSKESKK

Regarding `[N-]=[N+]=NCCCC[C@H](N)C(=O)N[C@H]1CSSC[C@@H]2NC(=O)[C@H](CCCNC(=N)N)NC(=O)[C@H](CO)NC(=O)[C@H](Cc3c[nH]cn3)NC(=O)[C@H](CC(=O)O)NC(=O)[C@H](CCCNC(=N)N)NC(=O)[C@@H]3CSSC[C@H](NC1=O)C(=O)N[C@@H](CC(N)=O)C(=O)N[C@@H](CSSC[C@@H](C(N)=O)NC2=O)C(=O)N[C@@H](CO)C(=O)N[C@@H](CO)C(=O)N[C@@H](CCCCN)C(=O)N[C@@H](Cc1c[nH]c2ccccc12)C(=O)N3` [AzK-KIIIA], the “IC50 relative to 1, hNaV1.4” value against hNaV1.4 [1] worked out at 3.6× ↑. Besides, the IC50 against hNaV1.4 [1] was found to be 32 ± 10 nM; against hNaV1.7 [2], 96 ± 41 nM. On hNaV1.4 [3], the “recovery of sodium current at end of washout, hNaV1.4” value was around 40%. The off-rate constant (koff) stood at 0.00118 s⁻¹ on hNaV1.4 [3] (read-out: koff, hNaV1.4, SEM) and 0.000392 s⁻¹ on hNaV1.7 [4] (read-out: koff, hNaV1.7, SEM). The kon amounted to 39700 M⁻¹ s⁻¹ at hNaV1.4 [3] (read-out: kon, hNaV1.4) and 16200 M⁻¹ s⁻¹ on hNaV1.7 [4] (read-out: kon, hNaV1.7). Moreover, at hNaV1.7 [4], the “recovery of sodium current at end of washout, hNaV1.7” value was 12.6 ± 1.2%.

Take `N=C(N)NCCC[C@@H]1NC(=O)[C@H](CO)NC(=O)[C@H](Cc2c[nH]cn2)NC(=O)[C@H](CC(=O)O)NC(=O)[C@H](CCCNC(=N)N)NC(=O)[C@@H]2CSSC[C@@H]3NC(=O)[C@@H](NC(=O)[C@@H](N)CCCCn4cc(C[C@H](N)C(=O)NCCOCCOCCOCCOCCC(=O)NCCOCCOCCOCCOCCC(=O)NCCOCCOCCOCCOCCC(=O)NCCOCCOCCOCCOCCC(=O)NN)nn4)CSSC[C@H](NC1=O)C(=O)N[C@H](C(N)=O)CSSC[C@H](NC(=O)[C@H](CC(N)=O)NC3=O)C(=O)N[C@@H](CO)C(=O)N[C@@H](CO)C(=O)N[C@@H](CCCCN)C(=O)N[C@@H](Cc1c[nH]c3ccccc13)C(=O)N2` [[K-KIIIA]-[PEG80]]: on hNaV1.4 [1], the “IC50 relative to 1, hNaV1.4” value is 16.0× ↑ and the IC50 was found to be 144 ± 46 nM.

At hNaV1.7 [2], `N=C(N)NCCC[C@@H]1NC(=O)[C@H](CO)NC(=O)[C@H](Cc2c[nH]cn2)NC(=O)[C@H](CC(=O)O)NC(=O)[C@H](CCCNC(=N)N)NC(=O)[C@@H]2CSSC[C@@H]3NC(=O)[C@@H](N)CSSC[C@@H](C(N)=O)NC(=O)[C@H](CSSC[C@H](NC(=O)[C@H](CC(N)=O)NC3=O)C(=O)N[C@@H](CO)C(=O)N[C@@H](CO)C(=O)N[C@@H](CCCCN)C(=O)N[C@@H](Cc3c[nH]c4ccccc34)C(=O)N2)NC1=O` [µ-KIIIA-ox-p2] gave an IC50 of 154 ± 15 nM.

The compound `N=C(N)NCCC[C@@H]1NC(=O)[C@H](CO)NC(=O)[C@H](Cc2c[nH]cn2)NC(=O)[C@H](CC(=O)O)NC(=O)[C@H](CCCNC(=N)N)NC(=O)[C@@H]2CSSC[C@@H]3NC(=O)[C@@H](N)CSSC[C@H](NC1=O)C(=O)N[C@H](C(N)=O)CSSC[C@H](NC(=O)[C@H](CC(N)=O)NC3=O)C(=O)N[C@@H](CO)C(=O)N[C@@H](CO)C(=O)N[C@@H](CCCCN)C(=O)N[C@@H](Cc1c[nH]c3ccccc13)C(=O)N2` [μ-KIIIA, μ-conotoxin KIIIA] yielded an IC50 against hNaV1.7 [2] of 132 ± 37 nM.

“E1G, E4G, Y33W huwentoxin-IV [m3-HwTx-IV]”: the half-inhibitory concentration (IC50) at hNaV1.7 [5] was 0.4 ± 0.1 nM; at hNaV1.4 [6] (SEM) it was 369 ± 196 nM; on hNaV1.4 [6] (read-out: IC50 (nM ± SEM), hNaV1.4), 370 nM.

For the compound μ-theraphotoxin-Hs2a [HwTx-IV], the concentration for half-maximal inhibition (IC50) with rNaV1.4 was 400 nM.

Usually IC50 stands for the concentration that inhibits the measured activity by half. As a reminder, the koff is the first-order rate constant of dissociation. For orientation: kon means the second-order rate constant of association.
